Data: PubChem BioAssay (NCI)
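Grown in 96-well plates, cells were treated for 48 hours with each compound at five concentrations. Insufficient inhibition: endpoint recorded as highest concentration tested. TGI: concentration producing complete growth inhibition.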

Key:
Experiment in all cases: DTP human tumour cell line panel, 48 h
CAKI-1 renal = test system: CAKI-1 renal
HS 578T breast = test system: HS 578T breast
COLO 205 colon = test system: COLO 205 colon
NCI-H23 lung = test system: NCI-H23 lung
TK-10 renal = test system: TK-10 renal
MDA-N = test system: MDA-N
EKVX NSCLC = test system: EKVX NSCLC
SNB-75 CNS = test system: SNB-75 CNS
SW-620 colon = test system: SW-620 colon
MDA-MB-231 breast = test system: MDA-MB-231 breast

Row | SMILES | TGI (CAKI-1 renal) [µM] | TGI (HS 578T breast) [µM] | TGI (COLO 205 colon) [µM] | TGI (NCI-H23 lung) [µM] | TGI (TK-10 renal) [µM] | TGI (MDA-N) [µM] | TGI (EKVX NSCLC) [µM] | TGI (SNB-75 CNS) [µM] | TGI (SW-620 colon) [µM] | TGI (MDA-MB-231 breast) [µM]
1 | c1ccc(C2=NC3(CCCCC3)N(c3nc4ccccc4s3)N2)nc1 | 91.5 | > 100 | 41.4 | 84.8 | 52.8 | 86.5 | > 100 | 76.6 | > 100 | 64.7
2 | CNC(=O)c1ccccc1-[s+]1c2ccccc2c(=O)n1C (stereo not drawn) | > 100 | > 100 | > 100 | > 100 | > 100 | > 100 | > 100 |  | > 100 | > 100
3 | O=C(Cc1ccccc1)NCCc1ccc(O)c(O)c1 |  | > 100 | > 100 | > 100 | > 100 | 34.9 | > 100 | > 100 | > 100 | > 100
4 | O=C1c2c(F)c(F)c(F)c(F)c2SC2=NCCN12 | 6.67 | 46.4 | 19 | 10.4 | 22.4 | 11.9 | 41.4 | 29.9 | 6.29 | 22.2
5 | CCOc1cc2c(cc1O)/C(=N\N)C[C@@H]1[C@@H]2CC[C@]2(C)[C@@H](O)CC[C@@H]12 | 40.6 | > 27 | > 56.5 | 92.1 | > 68 | 4.53 | > 100 | > 25.8 | 17.8 | > 42.9
6 | O=S(=O)(c1ccc(Br)cc1)n1c2ccc(Br)cc2c2nc3ccccc3nc21 | > 100 | > 100 | > 100 | > 100 | > 100 | > 100 | > 100 | 82.6 | > 100 | > 100
7 | COC(=O)c1cn(CCCC(=O)O)nn1 | > 100 | > 100 | > 100 | > 100 | > 100 | > 100 | > 100 | > 100 | > 100 | > 100
8 | CCOC(=O)CCCn1nnc(C(=O)OCC)c1C(=O)OCC | > 100 | > 100 | > 100 | > 100 | > 100 | > 100 | > 100 | > 100 | > 100 | > 100
9 | C=CCC1(O)c2ccccc2C(=O)c2c(O)ccc(O)c21 (stereo not drawn) | 50.7 | 21.9 | 26.9 | 56 | 47.1 | 5.15 | 57 | 25.3 | > 100 | 26
10 | CC(=O)NC1C(OCc2ccccc2)OC(CO)C(O)C1OCC(=O)NC(C)C(=O)NC(CCC(=O)NCCCCNc1ccc([N+](=O)[O-])c2[nH]c3ccccc3c(=O)c12)C(N)=O (stereo not drawn) | > 100 | 75.2 | > 100 | > 100 | > 100 | > 100 | > 100 | > 100 | > 100 | > 100
